Data taken from patent US9891156B2, “Method for determining the permeation of a permeant through a membrane” (Paraytec Limited, priority 2014, dated 2018).

Test: Rapid in vitro release testing of ibuprofen gel by UV/VIS area imaging
Format: in vitro ADME
Conditions: calculated comparison value; extinction coefficient 1.5 dm^3 g^−1 cm^−1
Source text: Measurements were made by switching the LED source of UV irradiation 51 and the LED source of VIS irradiation 52 and imaging at a frame rate of 2 Hz. […] Imaging is typically carried out alternately at a first wavelength where the API absorbs light (280 or 255 nm) and a second wavelength where there is no absorption (505 nm). […] The sample assembly 20 further comprises a fused silica elongate cuvette 22 which is cuboidal and open at the upper end with a width of 7 mm, a depth of 4 mm and a wall thickness of 1 mm. […] The fused silica elongate cuvette 22 is inserted vertically inside the elongate receptor cell 24 and is capped at a lower end with a membrane 21 which is glued in place. […] The sample assembly 20 further comprises an elongate substantially planar holder 30 for the API formulation 13 (the donor phase) which is slidably inserted in the fused silica elongate cuvette 22. The elongate substantially planar holder 30 projects beyond an upper end 22a of the fused silica elongate cuvette 22 to facilitate removal. […] The vertical bar (z direction) was used for measurement of the absorbance profiles spanning the donor phase, the membrane and the receptor phase (see FIGS. 3B to D).

With `CC(C)Cc1ccc(C(C)C(=O)O)cc1` (stereo not shown) [ibuprofen] the “Depletion value of the donor phase calculated from path length, ibuprofen concentration in the gel and literature extinction coefficient” value was −1.5 AU.
